The values that follow come from PubChem BioAssay AID256 (DTP/NCI, 2004).

In this assay the test system is CD2F1 mice, L1210 leukemia ip, survival T/C. Description: NCI In Vivo Anticancer Drug Screen. Data for tumor model L1210 Leukemia (intraperitoneal) in CD2F1 (CDF1) mice. The following applies: higher = longer survival. The essentials:
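Implant tumor; dose compound or vehicle; measure endpoint in both groups; report treated divided by control.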

The mark [1] stands for this setting: endpoint: mean survival time, dose: 100.0 mg/kg/injection, schedule: Q04DX003 (ip), vehicle: saline with Tween-80.
[2] abbreviates: endpoint: mean survival time, dose: 200.0 mg/kg/injection, schedule: Q04DX003 (ip), vehicle: saline with Tween-80.
Setting [3] is: endpoint: mean survival time, dose: 25.0 mg/kg/injection, schedule: Q04DX003 (ip), vehicle: saline with Tween-80.
Setting [4] is: endpoint: mean survival time, dose: 50.0 mg/kg/injection, schedule: Q04DX003 (ip), vehicle: saline with Tween-80.
Setting [5] is: endpoint: mean survival time, dose: 100.0 mg/kg/injection, schedule: Q01DX009 (ip), vehicle: saline with Tween-80.
The mark [6] stands for this setting: endpoint: mean survival time, dose: 100.0 mg/kg/injection, schedule: Q04DX002 (ip), vehicle: saline with Tween-80.
Where [7] appears, read: endpoint: mean survival time, dose: 100.0 mg/kg/injection, schedule: Q04DX003 (ip), vehicle: saline.
[8] abbreviates: endpoint: mean survival time, dose: 200.0 mg/kg/injection, schedule: Q04DX003 (ip), vehicle: saline.
[9] abbreviates: endpoint: mean survival time, dose: 50.0 mg/kg/injection, schedule: Q04DX003 (ip), vehicle: saline.

Several values for one entry are separate records, joined by “and”; a condition that tells them apart may be missing. Equal values may be shown once. Toxic doses and inconclusive results are not listed.

For `C=Cc1cc(OC)c2c(c1)c(=O)oc1c2cc(OC)c2c(O)ccc(C3OC(C)C(O)C(C)(O)C3O)c21` (stereo not given), the T/C is 107 % of control (endpoint: median survival time, dose: 5.0 mg/kg/injection, schedule: Q01DX009 (ip), vehicle: DMSO); 116 % of control and 111 % of control (endpoint: median survival time, dose: 10.0 mg/kg/injection, schedule: Q01DX009 (ip), vehicle: DMSO); 118 % of control (endpoint: median survival time, dose: 10.0 mg/kg/injection, schedule: Q01DX009 (ip), vehicle: other); 116 % of control and 122 % of control (endpoint: median survival time, dose: 20.0 mg/kg/injection, schedule: Q01DX009 (ip), vehicle: DMSO); 155 % of control (endpoint: median survival time, dose: 80.0 mg/kg/injection, schedule: Q01DX009 (ip), vehicle: DMSO); 120 % of control (endpoint: median survival time, dose: 160.0 mg/kg/injection, schedule: Q01DX009 (ip), vehicle: DMSO). Further, the T/C (endpoint: median survival time, dose: 160.0 mg/kg/injection, schedule: Q01DX009 (ip), vehicle: other) was 113 % of control.
Turning to `COc1cccc(/C=N/OCCNC(=O)c2ccc([N+](=O)[O-])cc2)c1`, the T/C was 97 % of control under setting [1]; 93 % of control under setting [2]; 101 % of control (endpoint: mean survival time, dose: 400.0 mg/kg/injection, schedule: Q04DX003 (ip), vehicle: saline with Tween-80).
On to `Cc1ccc(C(C)C)c(O)c1O`, for which the T/C is, setting by setting: (endpoint: mean survival time, dose: 25.0 mg/kg/injection, schedule: Q01DX009 (ip), vehicle: saline with Tween-80) 94 % of control; under setting [3], 96 % of control; (endpoint: mean survival time, dose: 50.0 mg/kg/injection, schedule: Q01DX009 (ip), vehicle: saline with Tween-80) 103 % of control; under setting [4], 98 % of control; under setting [5], 97 % of control; under setting [1], 94 % of control.
For `CC(C)(C)/[N+]([O-])=C/Cc1ccccc1`, the T/C was 97 % of control (endpoint: mean survival time, dose: 25.0 mg/kg/injection, schedule: Q04DX002 (ip), vehicle: saline with Tween-80); 110 % of control (endpoint: mean survival time, dose: 50.0 mg/kg/injection, schedule: Q04DX002 (ip), vehicle: saline with Tween-80); 110 % of control under setting [6].
`CCN(CC)c1nc(Cl)nc(NC(C)C)n1`: the T/C under setting [5] was 100 % of control; the T/C under setting [7] is 103 % of control; the T/C (endpoint: mean survival time, dose: 200.0 mg/kg/injection, schedule: Q01DX009 (ip), vehicle: saline with Tween-80) was 101 % of control; the T/C under setting [8] is 100 % of control; the T/C (endpoint: mean survival time, dose: 400.0 mg/kg/injection, schedule: Q01DX009 (ip), vehicle: saline with Tween-80) was 94 % of control; the T/C (endpoint: mean survival time, dose: 400.0 mg/kg/injection, schedule: Q04DX003 (ip), vehicle: saline) was 103 % of control.
Regarding `O=C(c1ccccc1)C1OC1c1ccc(Cl)cc1` (stereo not given), the T/C was 96 % of control under setting [4], 102 % of control under setting [1] and 106 % of control under setting [2].
Regarding `CCCCCCCCC1SC1CCCCCCCC(=O)OCCOCCOCC` (stereo not given), the T/C was 104 % of control (endpoint: mean survival time, dose: 100.0 mg/kg/injection, schedule: Q04DX003 (ip), vehicle: Klucel (hydroxypropylcellulose) (HPC)); 104 % of control (endpoint: mean survival time, dose: 200.0 mg/kg/injection, schedule: Q04DX003 (ip), vehicle: Klucel (hydroxypropylcellulose) (HPC)); 102 % of control (endpoint: mean survival time, dose: 400.0 mg/kg/injection, schedule: Q04DX003 (ip), vehicle: Klucel (hydroxypropylcellulose) (HPC)).
With `O=C(COc1ccc(Cl)c(Cl)c1)Nc1ccc[n+](Cc2ccccc2)c1`, the T/C was 104 % of control (endpoint: mean survival time, dose: 12.5 mg/kg/injection, schedule: Q04DX003 (ip), vehicle: saline with Tween-80); 98 % of control under setting [3]; 89 % of control under setting [4].
Take `CCCCNCCCNCCCNC(=O)c1csc(-c2csc(CCNC(=O)C(NC(=O)C(C)C(O)C(C)NC(=O)C(NC(=O)c3nc(C(CC(N)=O)NCC(N)C(N)=O)nc(N)c3C)C(OC3OC(CO)C(O)C(O)C3OC3OC(CO)C(O)C(OC(N)=O)C3O)c3cnc[nH]3)C(C)O)n2)n1` (stereo not given): the T/C runs as follows: (endpoint: mean survival time, dose: 2.5 mg/kg/injection, schedule: Q01DX009 (ip), vehicle: saline) 101 % of control; (endpoint: mean survival time, dose: 5.0 mg/kg/injection, schedule: Q01DX009 (ip), vehicle: saline) 101 % of control; (endpoint: mean survival time, dose: 10.0 mg/kg/injection, schedule: Q01DX009 (ip), vehicle: saline) 114 % of control; (endpoint: mean survival time, dose: 20.0 mg/kg/injection, schedule: Q01DX009 (ip), vehicle: saline) 104 % of control; (endpoint: mean survival time, dose: 40.0 mg/kg/injection, schedule: Q01DX009 (ip), vehicle: saline) 104 % of control.
Regarding `Cc1ccccc1S(=O)(=O)/C(=C(/I)c1ccccc1)c1ccccc1`, the T/C reads like this: under setting [9], 94 % of control; under setting [7], 102 % of control; under setting [8], 98 % of control.
Regarding `COc1cc2c(cc1OC)C(NC=O)CCC2` (stereo not given), the T/C was 102 % of control (endpoint: mean survival time, dose: 12.5 mg/kg/injection, schedule: Q01DX009 (ip), vehicle: water); 102 % of control (endpoint: mean survival time, dose: 25.0 mg/kg/injection, schedule: Q01DX009 (ip), vehicle: water); 102 % of control (endpoint: mean survival time, dose: 50.0 mg/kg/injection, schedule: Q01DX009 (ip), vehicle: water); 100 % of control (endpoint: mean survival time, dose: 100.0 mg/kg/injection, schedule: Q01DX009 (ip), vehicle: water); 104 % of control (endpoint: mean survival time, dose: 200.0 mg/kg/injection, schedule: Q01DX009 (ip), vehicle: water).
For `COC(=O)c1ccc(OC)c(I)c1`, the T/C by setting is: under setting [6], 98 % of control; (endpoint: mean survival time, dose: 200.0 mg/kg/injection, schedule: Q04DX002 (ip), vehicle: saline with Tween-80) 123 % of control; (endpoint: mean survival time, dose: 400.0 mg/kg/injection, schedule: Q04DX002 (ip), vehicle: saline with Tween-80) 98 % of control.
Take `C[As](C)[Se]C1OC(CO)C(O)C(O)C1O` (stereo not given): the T/C (endpoint: mean survival time, dose: 12.5 mg/kg/injection, schedule: Q01DX009 (ip), vehicle: saline) is 103 % of control; the T/C (endpoint: mean survival time, dose: 12.5 mg/kg/injection, schedule: Q04DX003 (ip), vehicle: saline) was 94 % of control; the T/C (endpoint: mean survival time, dose: 25.0 mg/kg/injection, schedule: Q01DX009 (ip), vehicle: saline) was 100 % of control; the T/C (endpoint: mean survival time, dose: 25.0 mg/kg/injection, schedule: Q04DX003 (ip), vehicle: saline) is 97 % of control; the T/C (endpoint: mean survival time, dose: 50.0 mg/kg/injection, schedule: Q01DX009 (ip), vehicle: saline) is 102 % of control; the T/C under setting [9] is 100 % of control.
Take `S=C1CCCCN1`: the T/C is, setting by setting: (endpoint: median survival time, dose: 25.0 mg/kg/injection, schedule: Q01DX009 (ip), vehicle: distilled water + alcohol) 96 % of control; (endpoint: median survival time, dose: 50.0 mg/kg/injection, schedule: Q01DX009 (ip), vehicle: distilled water + alcohol) 94 % of control; (endpoint: median survival time, dose: 100.0 mg/kg/injection, schedule: Q01DX009 (ip), vehicle: distilled water + alcohol) 106 % of control; (endpoint: median survival time, dose: 200.0 mg/kg/injection, schedule: Q01DX009 (ip), vehicle: distilled water + alcohol) 112 % of control.
